How the values were obtained:
MDA-MB-468 = test: MTT growth inhibition (in vitro cytotoxicity), MDA-MB-468; format: cell-based; details: Homo sapiens, average IC50
Protocol: (§1) The following Table sets forth the IC50 values of harmaline and quinoline analogs against 23 human cancer cell lines. Growth inhibition effects (in vitro cytotoxicity) on pancreatic, endometrial, breast, lung, ovarian, renal, cervical, lymphoma, and myeloma cancer cells were determined by MTT assays and represented by average IC50 values. In the Table, the results are given in terms of μM, and nd=not determined.

H1975 (EGFR mut) = test: MTT growth inhibition (in vitro cytotoxicity), H1975 (EGFR mut); format: cell-based; details: Homo sapiens, NCI-H1975, average IC50
Protocol: as §1

L363 = test: MTT growth inhibition (in vitro cytotoxicity), L363; format: cell-based; details: Homo sapiens, L-363, average IC50
Protocol: as §1

DoHH-2 = test: MTT growth inhibition (in vitro cytotoxicity), DoHH-2; format: cell-based; details: Homo sapiens, average IC50
Protocol: as §1

OCI-LY3 = test: MTT growth inhibition (in vitro cytotoxicity), OCI-LY3; format: cell-based; details: Homo sapiens, average IC50
Protocol: as §1

KMS-34 = test: MTT growth inhibition (in vitro cytotoxicity), KMS-34; format: cell-based; details: Homo sapiens, average IC50
Protocol: as §1

MIA Paca-2 = test: MTT growth inhibition (in vitro cytotoxicity), MIA Paca-2; format: cell-based; details: Homo sapiens, average IC50
Protocol: as §1

Metabolic half-life = format: in vitro ADME; details: read-out: metabolic half-lives
RPMI-8226 = test: MTT growth inhibition (in vitro cytotoxicity), RPMI-8226; format: cell-based; details: Homo sapiens, average IC50
Protocol: as §1

A2780CP = test: MTT growth inhibition (in vitro cytotoxicity), A2780CP; format: cell-based; details: Homo sapiens, A2780C/P, average IC50
Protocol: as §1

HEC-1a = test: MTT growth inhibition (in vitro cytotoxicity), HEC-1a; format: cell-based; details: Homo sapiens, average IC50
Protocol: as §1

A2780 = test: MTT growth inhibition (in vitro cytotoxicity), A2780; format: cell-based; details: Homo sapiens, average IC50
Protocol: as §1

MOLP-8 = test: MTT growth inhibition (in vitro cytotoxicity), MOLP-8; format: cell-based; details: Homo sapiens, average IC50
Protocol: as §1

SiHA = test: MTT growth inhibition (in vitro cytotoxicity), SiHA; format: cell-based; details: Homo sapiens, average IC50
Protocol: as §1

BxPC-3 = test: MTT growth inhibition (in vitro cytotoxicity), BxPC-3; format: cell-based; details: Homo sapiens, average IC50
Protocol: as §1

KMM-1 = test: MTT growth inhibition (in vitro cytotoxicity), KMM-1; format: cell-based; details: Homo sapiens, average IC50
Protocol: as §1

JIM1 = test: MTT growth inhibition (in vitro cytotoxicity), JIM1; format: cell-based; details: Homo sapiens, average IC50
Protocol: as §1

H1650(EGFR mut) = test: MTT growth inhibition (in vitro cytotoxicity), H1650(EGFR mut); format: cell-based; details: Homo sapiens, NCI-H1650, average IC50
Protocol: as §1

A498 = test: MTT growth inhibition (in vitro cytotoxicity), A498; format: cell-based; details: Homo sapiens, average IC50
Protocol: as §1

AN3CA = test: MTT growth inhibition (in vitro cytotoxicity), AN3CA; format: cell-based; details: Homo sapiens, AN3-CA, average IC50
Protocol: as §1

HCC70 = test: MTT growth inhibition (in vitro cytotoxicity), HCC70; format: cell-based; details: Homo sapiens, average IC50
Protocol: as §1

MDA-MB-231 = test: MTT growth inhibition (in vitro cytotoxicity), MDA-MB-231; format: cell-based; details: Homo sapiens, average IC50
Protocol: as §1

human cancer cell lines = test: Cancer cell growth inhibition, summary over cell lines; format: cell-based; details: cell lines not specified, read-out: cancer cell growth inhibition (IC50)
Protocol: as §1

FaDu = test: MTT growth inhibition (in vitro cytotoxicity), FaDu; format: cell-based; details: Homo sapiens, average IC50
Protocol: as §1

ASPC-1 = test: MTT growth inhibition (in vitro cytotoxicity), ASPC-1; format: cell-based; details: Homo sapiens, ASPC1, average IC50
Protocol: as §1

Row | SMILES | IC50 (MDA-MB-468) | IC50 (H1975 (EGFR mut)) | IC50 (L363) | IC50 (DoHH-2) | IC50 (OCI-LY3) | IC50 (KMS-34) | IC50 (MIA Paca-2) | IC50 (RPMI-8226) | IC50 (A2780CP) | IC50 (HEC-1a) | IC50 (A2780) | IC50 (MOLP-8) | IC50 (SiHA) | IC50 (BxPC-3) | IC50 (KMM-1) | IC50 (JIM1) | IC50 (H1650(EGFR mut)) | IC50 (A498) | IC50 (FaDu) | IC50 (ASPC-1) | further results
1 | COc1ccc2c3c([nH]c2c1)C(CC(CC1=NCCc2c1[nH]c1cc(OC)ccc21)c1ccc(O)c(OC)c1)=NCC3 [Compound 5, 4-(1,3-bis(7-methoxy-4,9-dihydro-3H-pyrido[3,4-b]indol-1-yl)propan-2-yl)-2-methoxy-phenol] | 2.76 µM | 6.12 µM | 2.69 µM | 1.83 µM | 4.54 µM | 4.72 µM | 2.87 µM | 3.19 µM | 3.76 µM | 5.05 µM | 5 µM | 3.37 µM | 4.88 µM | 2.11 µM | 3.48 µM | 3.17 µM | 2.78 µM | 3.56 µM | 3.87 µM | 6.75 µM | half-life (Metabolic half-life): 1.28 ± 0.0393 h; IC50 (AN3CA): 2.5 µM; IC50 (HCC70): 2.38 µM; IC50 (MDA-MB-231): 2.52 µM; IC50 (human cancer cell lines): 4 to 7 µM
2 | COc1ccc2c3c([nH]c2c1)C(CC(CC1=NCCc2c1[nH]c1cc(OC)ccc21)c1ccccc1)=NCC3 [Compound 6, 1,1′-(2-phenylpropane-1,3-diyl)bis(7-methoxy-4,9-dihydro-3H-pyrido[3,4-b]indole)] | – | – | 1.4 µM | 1.98 µM | – | – | 1.85 µM | – | – | – | 2.95 µM | – | – | – | 1.91 µM | 2.22 µM | – | – | 1.58 µM | 2.08 µM | IC50 (human cancer cell lines): 4 to 7 µM
3 | COc1ccc2[nH]c3c(c2c1)CCN=C3CCCC1=NCCc2c1[nH]c1ccc(OC)cc21 [Compound 7, 1,3-bis(6-methoxy-4,9-dihydro-3H-pyrido[3,4-b]indol-1-yl)propane] | 2.6 µM | 5.77 µM | 2.47 µM | 2.41 µM | 8.85 µM | 4.41 µM | 4.54 µM | 1.97 µM | 4.12 µM | 7.02 µM | 2.54 µM | 1.88 µM | 12.7 µM | 3.21 µM | 5.18 µM | 6.15 µM | 4.95 µM | 5.39 µM | 2.34 µM | 7.9 µM | half-life (Metabolic half-life): 2.6 ± 0.124 h; IC50 (AN3CA): 3.01 µM; IC50 (HCC70): 5.13 µM; IC50 (MDA-MB-231): 3.12 µM; IC50 (human cancer cell lines): 0.6 to 2 µM
4 | COc1ccc2[nH]c3c(c2c1)CCN=C3CC(C)(C)CC1=NCCc2c1[nH]c1ccc(OC)cc21 [Compound 8, 1,1′-(2,2-dimethylpropane-1,3-diyl)bis(6-methoxy-4,9-dihydro-3H-pyrido[3,4-b]indole)] | 1.9 µM | 2.08 µM | 1.21 µM | 2.21 µM | 2.59 µM | 1.7 µM | 1.22 µM | 0.81 µM | 2.23 µM | 2.22 µM | 1.38 µM | 0.67 µM | 2.89 µM | 0.95 µM | 1.49 µM | 2.59 µM | 1.78 µM | 1.71 µM | 0.98 µM | 2.07 µM | half-life (Metabolic half-life): 6.88 ± 1.94 h; IC50 (AN3CA): 1.96 µM; IC50 (HCC70): 1.3 µM; IC50 (MDA-MB-231): 1.5 µM; IC50 (human cancer cell lines): 0.6 to 2 µM
5 | COc1ccc2[nH]c3c(c2c1)CCN=C3CCCCC1=NCCc2c1[nH]c1ccc(OC)cc21 [Compound 9, 1,4-bis(6-methoxy-4,9-dihydro-3H-pyrido[3,4-b]indol-1-yl)butane] | 7.09 µM | 19.1 µM | 8.34 µM | 6.48 µM | 6.99 µM | 15.1 µM | 6.58 µM | 5.54 µM | 17.8 µM | 20.7 µM | 11.6 µM | 3.68 µM | 19.7 µM | 10.7 µM | 12.2 µM | 21.1 µM | 15.1 µM | 19.2 µM | 6.82 µM | 20.2 µM | IC50 (AN3CA): 20.7 µM; IC50 (HCC70): 11.9 µM; IC50 (MDA-MB-231): 19.4 µM
6 | COc1ccc2c3c([nH]c2c1)C(CC(CC1NCCc2c1[nH]c1cc(OC)ccc21)c1ccc(O)c(OC)c1)NCC3 (stereo not shown) [Compound 10, 4-(1,3-bis(7-methoxy-2,3,4,9-tetrahydro-1H-pyrido[3,4-b]indol-1-yl)propan-2-yl)-2-methoxyphenol] | – | – | 2.17 µM | 2.24 µM | – | – | 2.53 µM | – | – | – | 6.14 µM | – | – | – | 2.53 µM | 2.27 µM | – | – | 2.61 µM | 4.62 µM | –
